Test results from patent publication US20230167479A1, “RESEARCH INTO ANTIMICROBIAL RESISTANCE BY THE FIELD FLOW FRACTIONATION TECHNIQUE” (UNIVERSITÉ DE LIMOGES, priority 2020, published 2023).
In brackets after ≈: the same amount, converted by molar mass.

Tests used:
Type in all cases: cell-based
E. coli ATCC EC 25922 = assay: minimum inhibitory concentration; conditions: Escherichia coli, ATCCEC25922; concentration said to correspond to the MIC
[1] = test system: E. coli strain ATCC 25922; assay: SdFFF elution-profile sensitivity test, protocol of Example 1 / FIG. 1; conditions: significance threshold 10%
Description: The results of the antimicrobial resistance analysis are expected starting 40 hours after the sample was cultured on agar.
(§1) The field-flow fractionation device is set according to patent EP1679124. The device comprises an injection system where the sample is taken, the tubing bringing the sample from the injector to the separation channel via a first rotary joint, the separation channel contained in a centrifugation bowl, the rotation of which is ensured by an electric motor itself controlled manually or via a suitable computer device, thus allowing control of the intensity of the multigravitational field, the tubing bringing the separated species from the channel to the detector via the second rotary joint, and finally the detector.
(§2) Bacterial colonies were incubated in a Mueller-Hinton (MH) culture medium with an inoculum of 0.5 McFarland in the absence or in the presence of antibiotic, for 2 hours at 37° C. and under stirring. The liquid medium MH is the reference medium used for the reference method for determining MIC values, called the dilution method in a liquid medium.
(§3) After incubation for 2 h, the culture medium was centrifuged and then taken up in a volume of 0.5 ml of PBS.
Example 1: Results of resistance tests of the E. coli strain ATCC 25922 to various molecules, using SdFFF according to the present invention. […]

[2] = test system: E. coli strain ATCC 35218; assay: SdFFF elution-profile sensitivity test, protocol of Example 2 / FIG. 4; conditions: for percentage of variation in the retention factor PΔR: resistant strain, 4 mg/ml ampicillin vs control, significance threshold 10%
Description: (§4) The results of the antimicrobial resistance analysis are expected starting 18-26 hours after the sample was cultured on agar.
as §1, §2, §3
(§5) According to the handlings shown in FIG. 5, the calculation of the percentage of variation in the retention factor or PΔR is carried out as follows: ?
(§6) Example 2: A new analysis protocol was established according to FIG. 4, consistent with the clinical implementation of conventional antibiograms, making it possible to reduce to 26 hours post-sampling/isolating the time for obtaining the test results.
(§7) Thus, such assays were carried out directly on bacterial suspensions, obtained from colonies of the E. coli strain ATCC 25922 and ATCC 35218 cultured for 16-24 hours on agar medium, and incubated for 2 hours in the presence or in the absence of antibiotic (Ampicillin, FIGS. 5A/B).

[3] = test system: E. coli strain ATCC 25922; assay: as above; conditions: for percentage of variation in the retention factor PΔR: sensitive strain, 4 mg/ml ampicillin vs control, significance threshold 10%
Description: as §4, §1, §2, §3, §5, §6, §7

[4] = 4 mg/ml ampicillin, PΔR compared with 10% threshold

Compound	MIC (E. coli ATCC EC 25922)	PΔR ([1]; 0.03 µg/ml chlortetracycline vs control)	percentage of variation in the retention factor PΔR ([1]; 3 µg/ml of kanamycin vs control)	sensitivity/resistance of the strain to the antimicrobial [2, 4]	PΔR ([2]; resistant strain incubated with 8 mg/ml ampicillin)	percentage of variation in the retention factor PΔR [2]	percentage of variation in the retention factor PΔR ([2]; listed as Ampicillin)	sensitivity/resistance of the strain to the antimicrobial [3, 4]	percentage of variation in the retention factor PΔR [3]	percentage of variation in the retention factor PΔR ([3]; listed as Ampicillin)
CN(C)[C@@H]1C(O)=C(C(N)=O)C(=O)[C@@]2(O)C(O)=C3C(=O)c4c(O)ccc(Cl)c4[C@@](C)(O)[C@H]3C[C@@H]12 [chlortetracycline, Chlortetracycline]	0.03 µg/mL (≈ 0.0626 µM)	22%								
NC[C@H]1O[C@H](O[C@H]2[C@H](O)[C@@H](O[C@H]3O[C@H](CO)[C@@H](O)[C@H](N)[C@H]3O)[C@H](N)C[C@@H]2N)[C@H](O)[C@@H](O)[C@@H]1O [kanamycin]	3 µg/mL (≈ 6.19 µM)		11.2%							
CC1(C)S[C@@H]2[C@H](NC(=O)[C@H](N)c3ccccc3)C(=O)N2[C@H]1C(=O)O [ampicillin, Ampicillin]				resistant	≈ 7%	4.50%	≈ 5%	sensitive	12.70%	≈ 13%
